The target of this assay is T1, Na+-dependent bile acid transportation system (intestinal bile acid transportation system in the terminal small intestine) (Oryctolagus cuniculus, UniProt Q28727).
T1 construct: Brush border membrane vesicles from the intestinal cells of the small intestine were prepared by the so-called Mg^2+ precipitation method; from tissue; host or cells: brush border membrane vesicles from the terminal 7/10 of the small intestine (ileum) of male New Zealand rabbits
T1 sequence (Q28727 1-347): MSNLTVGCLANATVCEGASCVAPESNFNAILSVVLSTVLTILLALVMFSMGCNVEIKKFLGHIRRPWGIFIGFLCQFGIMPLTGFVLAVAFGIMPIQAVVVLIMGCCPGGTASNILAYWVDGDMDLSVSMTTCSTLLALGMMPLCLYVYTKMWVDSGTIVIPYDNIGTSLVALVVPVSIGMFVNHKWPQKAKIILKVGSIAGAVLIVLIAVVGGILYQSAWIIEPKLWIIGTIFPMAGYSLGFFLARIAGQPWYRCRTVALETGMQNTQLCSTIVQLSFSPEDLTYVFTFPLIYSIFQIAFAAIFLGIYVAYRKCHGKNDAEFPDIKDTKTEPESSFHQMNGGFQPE
Description: Inhibition of Na+-dependent [3H]-taurocholate uptake in brush border membrane vesicles of the ileum of rabbits. Type of assay: biochemical. Particulars: rabbit ileum brush border membrane vesicles, 50 μM taurocholate, usually 1 minute incubation. Here is the method: Biological testing of the compounds according to the invention was carried out by determining the inhibition of [^3 H]-taurocholate uptake in brush border membrane vesicles of the ileum of rabbits. The inhibition test was carried out as described below.
Test 1. Preparation of Brush Border Membrane Vesicles from the Ileum of Rabbits
Brush border membrane vesicles from the intestinal cells of the small intestine were prepared by the so-called Mg^2+ precipitation method as follows. Male New Zealand rabbits (2 to 2.5 kg body weight) were sacrificed by intravenous injection of 0.5 ml of T61®, an aqueous solution of 2.5 mg of tetracaine HCl, 100 mg of embutramide and 25 mg of mebezonium iodide. The small intestine was removed and flushed with ice-cold physiological saline solution. The terminal 7/10 of the small intestine (measured in the oral-rectal direction, i.e. the terminal ileum, which contains the active Na^+ -dependent bile acid transportation system) was used for preparation of the brush border membrane vesicles. The intestines were frozen in plastic bags under nitrogen at -80° C.
For preparation of the membrane vesicles, the frozen intestines were thawed at 30° C. in a water-bath. The mucosa were peeled off and suspended in 60 ml of ice-cold 12 mM TRIS-HCl buffer (pH 7.1)/300 mM mannitol, 5 mM EGTA/10 mg/l of phenylmethyl-sulfonyl fluoride/1 mg/l of trypsin inhibitor from soybeans (32 U/mg)/0.5 mg/l of trypsin inhibitor from the bovine lung (193 U/mg)/5 mg/l of bacitracin. After dilution to 300 ml with ice-cold distilled water, the mixture was homogenized with an Ultraturrax (18-rod, IKA Werk Staufen, Germany) for 3 minutes at 75% of the maximum power, while cooling with ice. After addition of 3 ml of 1 M MgCl2 solution (final concentration 10 mM), the mixture was left to stand for exactly 1 minute at 0° C. The cell membranes aggregated by addition of Mg^2+ and precipitated, with the exception of the brush border membranes. After centrifugation for 15 minutes at 3000×g (5000 rpm, SS-34 rotor), the precipitate was discarded and the supernatant, which contained the brush border membranes, was centrifuged at 48000×g (20000 rpm, SS-34 rotor) for 30 minutes. The supernatant was discarded and the precipitate was rehomogenized in 60 ml of 12 mM TRIS/HCI buffer (pH 7.1)/60 mM mannitol, 5 mM EGTA with a Potter Elvejhem homogenizer (Braun, Melsungen, 900 rpm, 10-stroke). After addition of 0.1 ml of 1 M MgCl2 solution and an incubation time of 15 minutes at 0° C., the mixture was centrifuged again at 3000×g for 15 minutes. The supernatant was then centrifuged again at 48000×g (20000 rpm, SS-34 rotor) for 30 minutes. The precipitate was taken up in 30 ml of 10 mM TRIS/HEPES buffer (pH 7.4)/300 mM mannitol and resuspended by 20 strokes in a Potter Elvejhem homogenizer at a 1000 rpm. After centrifugation at 48000×g (20000 rpm, SS-34 rotor) for 30 minutes, the precipitate was taken up in 0.5 to 2 ml of TRIS/HEPES buffer (pH 7.4)/280 mM mannitol (final concentration 20 mg/ml) and resuspended with the aid of a tuberculin syringe with a 27-gauge needle. The vesicles were either used for the transportation investigations directly after the preparation, or stored in 4 mg portions in liquid nitrogen at -196° C.
Test 2. Inhibition of the Na^+ -dependent [^3 H]Taurocholate Uptake in Brush Border Member Vesicles of the Ileum
The uptake of substrates into the brush border membrane vesicles described above was determined by means of the so-called membrane filtration technique. 10 μl of the vesicle suspension (100 μg of protein) were pipetted as drops onto the wall of a polystyrene incubation tube (11×70 mm) which contained the incubation medium with the corresponding ligands (90 μl). […]

Structures are written as SMILES.

On to `OC(c1ccccc1)C(c1ccc2ccccc2n1)C(Nc1ccccn1)c1ccccc1` (stereo not shown) [Example 2], for which the “Biological Test: quotient of the IC50Na values of the reference substance taurochenodeoxycholate (TCDC) and of the test substance” value (“Biological Test: quotient” below) was 0.83.
`Cc1noc(C)c1C(O)C(c1ccccn1)C(Nc1ccccn1)c1ccccc1N` (stereo not shown) [Example 44]: the “Biological Test: quotient” value stood at 0.74.
With `OC(c1cnccn1)C(c1ccccn1)C(Nc1ccccn1)c1ccccc1` (stereo not shown) [Example 11], the “Biological Test: quotient” value is reported as 0.24.
As for `COc1ccsc1C(O)C(c1ccccn1)C(Nc1ccccn1)c1ccccc1` (stereo not shown) [Example 37], the “Biological Test: quotient” value is recorded as 9.53.
The figure for `Cc1nc(C)c(C(O)C(c2ccccn2)C(Nc2ccccn2)c2ccccc2)s1` (stereo not shown) [Example 14] is 0.66; for `OC(c1cc(-c2ccccc2)on1)C(c1ccccn1)C(Nc1ccccn1)c1ccccc1` (stereo not shown) [Example 41] it is 0.60.
As for `Cc1nc(-c2ccncc2)sc1C(O)C(c1ccccn1)C(Nc1ccccn1)c1ccccc1` (stereo not shown) [Example 51], the figure is 0.52; as for `OC(c1cnc2ccccc2c1)C(c1ccccn1)C(Nc1ccccn1)c1ccccc1` (stereo not shown) [Example 20], 0.23.
Consider `OC(c1cc2ccccc2[nH]1)C(c1ccccn1)C(Nc1ccccn1)c1ccccc1` (stereo not shown) [Example 46], for which the “Biological Test: quotient” value worked out at 0.22.
As for `Cc1noc(C)c1C(O)C(c1ccccn1)C(Nc1ccccn1)c1ccccc1` (stereo not shown) [Example 31], the figure is 0.37; as for `Cc1nc(C(O)C(c2ccccn2)C(Nc2ccccn2)c2ccccc2N)c(C)o1` (stereo not shown) [Example 48], 0.80.
On to `Cc1ccc(C(O)C(c2ccccn2)C(Nc2ccccn2)c2ccccc2)s1` (stereo not shown) [Example 27], for which the “Biological Test: quotient” value came out at 1.02.
In the case of `Nc1ccccc1C(Nc1ccccn1)C(c1ccccn1)C(O)c1ccon1` (stereo not shown) [Example 55], the “Biological Test: quotient” value came to 0.31.
Consider `Cc1cc(C(O)C(c2ccccn2)C(Nc2ccccn2)c2ccccc2N)no1` (stereo not shown) [Example 49], for which the “Biological Test: quotient” value was determined as 0.77.
For the molecule `OC(c1nccs1)C(c1ccccc1)C(Nc1ccccn1)c1ccccc1` (stereo not shown) [Example 4], the “Biological Test: quotient” value came to 0.1.
As for `Cn1ncnc1C(O)C(c1ccccn1)C(Nc1ccccn1)c1ccccc1` (stereo not shown) [Example 47], the figure is 0.35.
As for `OC(c1ccccc1)C(c1cnc2ccccc2n1)C(Nc1ccccn1)c1ccccc1` (stereo not shown) [Example 6], the figure is 0.57; as for `OC(c1cccs1)C(c1ccccn1)C(Nc1ccccn1)c1ccccc1` (stereo not shown) [Example 22], 0.19; as for `OC(c1ccccc1)C(c1cnc2ccccc2n1)C(Nc1ccccn1)c1ccccc1` (stereo not shown) [Example 7], 0.22.
Turning to `Cc1nc(-c2ccncc2)sc1C(O)C(c1ccccn1)C(Nc1ccccn1)c1ccccc1` (stereo not shown) [Example 52], the “Biological Test: quotient” value is listed as 0.40.
For the molecule `Cc1nc(-c2ccncc2)sc1C(O)C(c1ccccn1)C(Nc1ccccn1)c1ccccc1` (stereo not shown) [Example 50], the “Biological Test: quotient” value stood at 0.79.
For the molecule `OC(c1ccccc1)C(c1cnc2ccccc2c1)C(Nc1ccccn1)c1ccccc1` (stereo not shown) [Example 9], the “Biological Test: quotient” value amounted to 0.35.
On to `OC(c1cnccn1)C(c1ccccn1)C(Nc1ccccn1)c1ccccc1` (stereo not shown) [Example 12], for which the “Biological Test: quotient” value was determined as 0.24.
As for `Cc1nc(C(O)C(c2ccccn2)C(Nc2ccccn2)c2ccccc2)c(C)o1` (stereo not shown) [Example 25], the “Biological Test: quotient” value was determined as 0.46.
The figure for `OC(c1cnc2ccccc2c1)C(c1ccccn1)C(Nc1ccccn1)c1ccccc1` (stereo not shown) [Example 18] is 0.37; for `OC(c1cccs1)C(c1ccccn1)C(Nc1ccccn1)c1ccccc1` (stereo not shown) [Example 23] it is 0.23; for `OC(c1cccs1)C(c1ccccn1)C(Nc1ccccn1)c1ccccc1` (stereo not shown) [Example 21] it is 1.16.
Turning to `Cc1nc(C)c(C(O)C(c2ccccn2)C(Nc2ccccn2)c2ccccc2N)s1` (stereo not shown) [Example 39], the “Biological Test: quotient” value turned out to be 0.65.
In the case of `Cn1ccnc1C(O)C(c1ccccn1)C(Nc1ccccn1)c1ccccc1` (stereo not shown) [Example 42], the “Biological Test: quotient” value is listed as 0.87.
Turning to `OC(c1cnc2ccccc2c1)C(c1ccccn1)C(Nc1ccccn1)c1ccccc1` (stereo not shown) [Example 19], the “Biological Test: quotient” value came to 0.42.
Take `OC(c1cccs1)C(c1ccccn1)C(Nc1ccccn1)c1ccccc1` (stereo not shown) [Example 24]: the “Biological Test: quotient” value amounted to 0.22.
Consider `Cc1noc(C)c1C(O)C(c1ccccn1)C(Nc1ccccn1)c1ccccc1[N+](=O)[O-]` (stereo not shown) [Example 43], for which the “Biological Test: quotient” value is on record as 0.23.
`Cc1nc(C(O)C(c2ccccn2)C(Nc2ccccn2)c2ccccc2)sc1C` (stereo not shown) [Example 33]: the “Biological Test: quotient” value is 0.24.
As for `OC(c1ccc(Cl)s1)C(c1ccccn1)C(Nc1ccccn1)c1ccccc1` (stereo not shown) [Example 26], the figure is 0.26.

Source of the values: patent US6303639A, “Propanolamine derivatives substituted by heterocyclic radicals, processes for their preparation, pharmaceuticals comprising these compounds and their use” (Aventis Pharma Deutschland GmbH, priority 1998, dated 2001).
